In brackets after ≈: the same amount, converted by molar mass. Read-outs that look alike come from different tables or passages of the source.
Tests used:
[1] = tested on: P. aeruginosa PA14 4.18 (pmrB); settings: supplement CSV; full MH pH 7.4
P. aeruginosa ZEM-1A = test: microbe, parasite or virus in culture; settings: Pseudomonas aeruginosa, ZEM1A
Method: (§1) Minimum inhibitory concentration assay
(§2) Antimicrobial activity was assayed against P. aeruginosa PAO1, K. pneumoniae NCTC418, E. coli W3110, A. baumannii ATCC 19606, methicillin-resistant S. aureus COL (MRSA), and for selected peptides on P. aeruginosa PA14 and the polymyxin-B-resistant derivative PA14 2P4, as well as the clinical isolates ZEM-1A and ZEM9A, K. pneumoniae OXA-48, S. aureus Newman, Enterobacter cloacae and Burkholderia cenocepacia. The minimal inhibitory concentration (MIC) was determined by using broth microdilution method. A colo ny of bacteria was picked and grown in Luria-Bertani (LB) medium overnight at 37°C. For E. coli BW25113 sbmA::kan the medium was supplemented with 25 mg/L of kanamycin. The next day, the culture was then regrown in LB medium to log phase (OD600 = 0.6 to 0.8), which lasted approximately 4 h, and diluted to an OD600 of 0.022 in the desired medium. Stock solutions of 1 mg/mL of the samples were prepared in sterilized milliQ water and diluted to the beginning concentration of 64 μg/mL in 300 μL Mueller Hinton (MH)-medium. The diluted samples were added to first well of 96-well microtiter plate (TPP, untreated, Faust Laborbedarf, AG, Schaffhausen) and diluted serially by ½. Finally, 4 μL of the bacterial suspension was inoculated into the sample solutions (150 μL/well) with a final inoculation of about 5∙10^5 CFU/mL. The plates were then incubated at 37°C for 15-18h. For each assay, sterility (broth only) and growth control (broth with bacterial inoculum, without antibiotics) were checked with two columns in the plate. The next day, 15 μL of 3-(4,5-dimethylthiazol-2-yl)-2,5-diphenyltetrazolium bromide (MTT) was added to each well of the plate, such a way that MIC was defined as the lowest concentration of the peptide that inhibited visible growth of the tested

K. pneumoniae OXA-48 = test: microbe, parasite or virus in culture; settings: Klebsiella pneumoniae
Method: as §1, §2

[2] = tested on: P. aeruginosa PA14 2P4 (pmrB); test: microbe, parasite or virus in culture; settings: Pseudomonas aeruginosa
Method: as §1, §2

P. aeruginosa PA14 = test: microbe, parasite or virus in culture; settings: for MIC: Pseudomonas aeruginosa
Method: as §1, §2

P. aeruginosa ZEM9A = test: microbe, parasite or virus in culture; settings: Pseudomonas aeruginosa, ZEM9A
Method: as §1, §2

E. cloacae = test: microbe, parasite or virus in culture; settings: Enterobacter cloacae
Method: as §1, §2

## CC[C@H]1OC(=O)[C@H](C)[C@@H](O[C@H]2C[C@@](C)(OC)[C@@H](O)[C@H](C)O2)[C@H](C)[C@@H](O[C@@H]2O[C@H](C)C[C@H](N(C)C)[C@H]2O)[C@](C)(O)C[C@@H](C)CN(C)[C@H](C)[C@@H](O)[C@]1(C)O [AZM, azithromycin, reference compound]
[1]
  MIC P. aeruginosa PA14 4.18: 32 µg/mL (≈ 42.7 µM)
P. aeruginosa ZEM-1A; pH 7.4, read-out: MIC P. aeruginosa ZEM-1A, 12.5% MHB, clinical isolate, 12.5% MHB pH 7.4, 16–20 h at 37 °C, cells marked c: single measurement (in duplicates)
  MIC: < 0.5 µg/mL
P. aeruginosa ZEM-1A; pH 7.4, read-out: MIC P. aeruginosa ZEM-1A, full MHB, clinical isolate, full MHB pH 7.4, 16–20 h at 37 °C, cells marked c: single measurement (in duplicates)
  MIC: 64 µg/mL (≈ 85.4 µM)
P. aeruginosa ZEM-1A; pH 7.4, read-out: MIC P. aeruginosa ZEM-1A, supplement CSV, 12.5% MH pH 7.4
  MIC: < 0.5 µg/mL
P. aeruginosa ZEM-1A; pH 7.4, read-out: MIC P. aeruginosa ZEM-1A, supplement CSV, full MH pH 7.4
  MIC: 64 µg/mL (≈ 85.4 µM)
K. pneumoniae OXA-48; OXA48, pH 7.4, read-out: MIC K. pneumoniae OXA-48, 12.5% MHB, carbapenem-resistant, 12.5% MHB pH 7.4, 16–20 h at 37 °C
  MIC: 8 µg/mL (≈ 10.7 µM)
K. pneumoniae OXA-48; OXA48, pH 7.4, read-out: MIC K. pneumoniae OXA-48, full MHB, carbapenem-resistant, full MHB pH 7.4, 16–20 h at 37 °C
  MIC: 8 to 16 µg/mL (≈ 10.7 to 21.4 µM)
K. pneumoniae OXA-48; OXA48, pH 7.4, read-out: MIC K. pneumoniae OXA-48, supplement CSV, 12.5% MH pH 7.4
  MIC: 8 µg/mL (≈ 10.7 µM)
K. pneumoniae OXA-48; OXA48, pH 7.4, read-out: MIC K. pneumoniae OXA-48, supplement CSV, full MH pH 7.4
  MIC: 8 to 16 µg/mL (≈ 10.7 to 21.4 µM)
[2]; PA14, pH 7.4, read-out: MIC P. aeruginosa PA14 2P4 (pmrB), 12.5% MHB, polymyxin B resistant strain, 12.5% MHB pH 7.4, 16–20 h at 37 °C
  MIC: 16 µg/mL (≈ 21.4 µM)
[2]; PA14, pH 7.4, read-out: MIC P. aeruginosa PA14 2P4 (pmrB), full MHB, polymyxin B resistant strain, full MHB pH 7.4, 16–20 h at 37 °C
  MIC: 32 to 64 µg/mL (≈ 42.7 to 85.4 µM)
[2]; PA14, pH 7.4, read-out: MIC P. aeruginosa PA14 2P4, supplement CSV, 12.5% MH pH 7.4
  MIC: 16 µg/mL (≈ 21.4 µM)
[2]; PA14, pH 7.4, read-out: MIC P. aeruginosa PA14 2P4, supplement CSV, full MH pH 7.4
  MIC: 32 to 64 µg/mL (≈ 42.7 to 85.4 µM)
P. aeruginosa PA14; PA14, pH 7.4, read-out: MIC P. aeruginosa PA14
  MIC: 32 µg/mL (≈ 42.7 µM)
P. aeruginosa PA14; PA14, pH 7.4, read-out: MIC P. aeruginosa PA14, 12.5% MHB
  MIC: 32 µg/mL (≈ 42.7 µM)
P. aeruginosa PA14; PA14, pH 7.4, read-out: MIC P. aeruginosa PA14, full MHB
  MIC: 32 µg/mL (≈ 42.7 µM)
P. aeruginosa PA14; supplement CSV, full MH pH 7.4
  MIC P. aeruginosa PA14: 32 µg/mL (≈ 42.7 µM)
P. aeruginosa ZEM9A; pH 7.4, read-out: MIC P. aeruginosa ZEM9A, 12.5% MHB, clinical isolate, 12.5% MHB pH 7.4, 16–20 h at 37 °C
  MIC: 32 to 64 µg/mL (≈ 42.7 to 85.4 µM)
P. aeruginosa ZEM9A; pH 7.4, read-out: MIC P. aeruginosa ZEM9A, full MHB, clinical isolate, full MHB pH 7.4, 16–20 h at 37 °C
  MIC: > 64 µg/mL
P. aeruginosa ZEM9A; pH 7.4, read-out: MIC P. aeruginosa ZEM9A, supplement CSV, 12.5% MH pH 7.4
  MIC: 32 to 64 µg/mL (≈ 42.7 to 85.4 µM)
P. aeruginosa ZEM9A; pH 7.4, read-out: MIC P. aeruginosa ZEM9A, supplement CSV, full MH pH 7.4
  MIC: > 64 µg/mL
E. cloacae; pH 7.4, read-out: MIC E. cloacae, 12.5% MHB, 12.5% MHB pH 7.4, 16–20 h at 37 °C
  MIC: 8 µg/mL (≈ 10.7 µM)
E. cloacae; pH 7.4, read-out: MIC E. cloacae, full MHB, full MHB pH 7.4, 16–20 h at 37 °C
  MIC: 16 µg/mL (≈ 21.4 µM)
E. cloacae; pH 7.4, read-out: MIC E. cloacae, supplement CSV, 12.5% MH pH 7.4
  MIC: 8 µg/mL (≈ 10.7 µM)
E. cloacae; pH 7.4, read-out: MIC E. cloacae, supplement CSV, full MH pH 7.4
  MIC: 16 µg/mL (≈ 21.4 µM)

— article PMC11571207, “Stereorandomized Oncocins with Preserved Ribosome Binding and Antibacterial Activity” (Journal of Medicinal Chemistry, 2024)
